Like-named read-outs stand apart in the source and are kept apart here.
Columns and labels:
[1] = target: T1, UHRF1_SRA binding to hemimethylated DNA (Homo sapiens, UniProt Q96T88); test: TR-FRET assay, dose-response inhibition of UHRF1_SRA binding to FAM-labeled hemimethylated DNA; conditions: for Dose-response validation of screen hits (result in words): dilution series 50 μM to 0.64 nM, quadruplicate
T1 construct: made in house; host or cells: E. coli BL-21 Gold
T1 sequence (Q96T88 419-582 limits assumed): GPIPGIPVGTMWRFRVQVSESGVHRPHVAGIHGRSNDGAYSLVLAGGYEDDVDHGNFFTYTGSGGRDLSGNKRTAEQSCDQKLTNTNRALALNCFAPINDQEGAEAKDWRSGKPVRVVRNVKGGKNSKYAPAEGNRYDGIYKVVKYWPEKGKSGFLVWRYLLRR
Procedure: TR-FRET assays were performed in an optimized TR-FRET buffer (4% glycerol, 1 mM MgCl2, 0.5 mM EDTA, 0.5 mM DTT, 125 mM NaCl, 10 mM Tris HCl, and 0.2% Tween-20) in non-binding, flat-bottom 384-well plates (Corning). UHRF1_SRA protein was added to a final concentration of 125 nM and terbium-labeled antibody was added at 5 nM (Life Technologies) in a final reaction volume of 20 μL. For initial binding experiments examining the affinity of UHRF1_SRA to DNA, FAM-labeled hemimethylated or unmethylated double stranded oligonucleotides were added in a dilution series, and the reaction mixture was incubated at 4°C with shaking for 1 hour. TR-FRET measurements were made on a SpectraMax M5 (Molecular Devices, Sunnyvale, CA, USA), using an excitation wavelength of 332 nm and emissions read at 485 nm and 515 nm with a 50 μsec delay and 400 μsec integration. The ratio of the 515 nm emission (arising from FRET) to the 485 nm emission provides a normalized TR-FRET signal that represents the extent of binding. For inhibitor curves, FAM-labeled hemimethylated oligonucleotide was added to a final concentration of 100 nM, and unlabeled oligonucleotide was added in a dilution series. A Z’ factor was calculated for 32 replicates of UHRF1_SRA protein binding FAM-labeled hemimethylated DNA with or without the addition of an excess (5 μM) of unlabeled hemimethylated inhibitor (“cold” perfect competitive inhibitor positive control for inhibition):
Each hit compound was tested using the TR-FRET assay above in quadruplicate in a dilution series (50 μM to 0.64 nM). Curve fitting was performed using the open source software R version 2.15.2 with the ggplot2 package.

[2] = target: T1, UHRF1_SRA binding to hemimethylated DNA; test: LOPAC primary screen with the TR-FRET assay; conditions: 20 μM; hit = Z-score < −4.08, Bonferroni adjusted p-value < 0.05
Procedure: The above TR-FRET assay was employed to screen the Library of Pharmacologically Active Compounds (LOPAC) (Sigma-Aldrich) using optimized conditions. 200 uM stock solutions of compounds dissolved in dimethyl sulfoxide (DMSO) were added to a final concentration of 20 μM across four 384-well plates containing 20 μL of TR-FRET buffer with 125 nM UHRF1_SRA protein, 100 nM double stranded FAM-labeled hemimethylated oligos, and 5 nM terbium labeled anti-HIS antibody. Controls on each plate include: 1) a DMSO-only vehicle control, 2) 5μM of unlabeled, methylated oligonucleotide as a positive inhibition control, 3) unmethylated, FAM-labeled oligonucleotide as a negative control, and 4) no UHRF1_SRA protein negative control. Each plate was incubated at 4° C for one hour and read using a Safire^2 (Tecan Group, Männedorf, Switzerland) with excitation at 332 nm and emissions read at 485 nm and 515 nm. A Z score of the TR-FRET signal (ratio of 515 nm signal to the 485 nm signal) was calculated for each compound using the following formula: […]
where x is the TR-FRET signal for each compound, x¯ is the median TR-FRET signal of all compounds on the plate, and σ is the standard deviation of all compound TR-FRET signals across the plate. Hits were defined as those compounds with Z-score < −4.08 corresponding to a Bonferroni adjusted p-value of less than 0.05.

[3] = tested on: C42B prostate cancer cell line; test: Cellular growth/proliferation assay; assay type: cell-based; conditions: mitoxantrone 2.5 nM or doxorubicin 5 nM with decitabine 50 nM
Procedure: (§1) www.oncotarget.com Oncotarget, Supplementary Materials […]
(§2) derivative chemotherapeutic drugs
(§3) Supplementary Figure 1: Cellular growth/proliferation assays of C42B, PC-3 and LNCaP prostate cancer cell lines treated with mitoxantrone (2.5 nM) or doxorubicin (5 nM) in combination with decitabine (50 nM) or vehicle control (DMSO), decitabine alone, or DMSO alone.
(§4) (1 picture or pasted object on this page, not shown here)

[4] = tested on: PC-3 prostate cancer cell line; test: Cellular growth/proliferation assay; assay type: cell-based; conditions: mitoxantrone 2.5 nM or doxorubicin 5 nM with decitabine 50 nM
Procedure: as §1, §2, §3, §4

[5] = tested on: LNCaP prostate cancer cell line; test: Cellular growth/proliferation assay; assay type: cell-based; conditions: mitoxantrone 2.5 nM or doxorubicin 5 nM with decitabine 50 nM
Procedure: as §1, §2, §3, §4

DU-145 cells [6] = test: Growth curve assay (IncuCyte); assay type: cell-based; conditions: mitoxantrone 1.25 nM or doxorubicin 5 nM or 10 nM with 50 nM decitabine
Procedure: The next day, cells were treated with a single dose of DMSO (vehicle control), decitabine alone (50 nM), mitoxantrone alone (1.25 nM), doxorubicin alone (5 nM or 10 nM), or decitabine in combination with mitoxantrone (1.25 nM) or doxorubicin (5 nM or 10 nM). Cell growth was measured using IncuCyte™ technology (Essen Bioscience, Ann Arbor, MI, USA) by imaging 16 fields per well at 6 hour intervals. The cell surface area and percent confluence were calculated using IncuCyte software, and growth curves were constructed in R using the ggplot2 package.

DU-145 cells [7] = test: Clonogenic survival assay; conditions: 10 days; for Clonogenic survival, drug alone: decitabine 50 nM, mitoxantrone 2.5 nM, doxorubicin 5 nM; for Clonogenic survival, in combination with decitabine: mitoxantrone 2.5 nM or doxorubicin 5 nM with 50 nM decitabine
[8] = 125 nM UHRF1_SRA, 100 nM FAM-labeled hemimethylated oligo, read-out: IC50 of inhibition of UHRF1_SRA binding to labeled hemimethylated DNA

Compound | IC50 [1, 8] [nM] | Inhibition of UHRF1_SRA binding to hemimethylated DNA in pilot screen [2] | Dose-response validation of screen hits (result in words) [1] | other results
COc1cccc2c1C(=O)c1c(O)c3c(c(O)c1C2=O)C[C@@](O)(C(C)=O)C[C@@H]3O[C@H]1C[C@H](N)[C@H](O)[C@H](C)O1 [Daunorubicin, daunorubicin] | 313 |  |  | 
Cc1ccc(C(=O)Nc2ccc(S(=O)(=O)O)c3cc(S(=O)(=O)O)cc(S(=O)(=O)O)c23)cc1NC(=O)c1cccc(NC(=O)Nc2cccc(C(=O)Nc3cc(C(=O)Nc4ccc(S(=O)(=O)O)c5cc(S(=O)(=O)O)cc(S(=O)(=O)O)c45)ccc3C)c2)c1 [Suramin] | 2250 | significantly inhibited | inhibited binding with a sigmoidal dose response | 
Cc1nc(N=Nc2cc(S(=O)(=O)O)c3cc([N+](=O)[O-])cc(S(=O)(=O)O)c3c2)c(COP(=O)(O)O)c(C=O)c1O [PPNDS] | 770 | significantly inhibited | inhibited binding with a sigmoidal dose response | 
Nc1c(S(=O)(=O)O)cc(Nc2ccc(Nc3nc(Cl)nc(Nc4cccc(S(=O)(=O)O)c4)n3)c(S(=O)(=O)O)c2)c2c1C(=O)c1ccccc1C2=O [Reactive Blue 2] |  | significantly inhibited |  | 
N#CC(C#N)=C(N)/C(C#N)=C/c1cc(O)c(O)c(O)c1 [tyrphostin 51] |  | significantly inhibited | failed to show any appreciable inhibition | 
CN(N=O)c1cc(O)ccc1O [dephostatin] |  | significantly inhibited | failed to show any appreciable inhibition | 
O=C1c2c(O)ccc(O)c2C(=O)c2c(NCCNCCO)ccc(NCCNCCO)c21 [mitoxantrone] | 134 | significantly inhibited | inhibited binding with a sigmoidal dose response | Growth/proliferation, combination with decitabine [3]: enhanced inhibition of; Growth/proliferation, combination with decitabine [4]: enhanced inhibition of; Growth/proliferation, combination with decitabine [5]: enhanced inhibition of; Growth curve analysis, in combination with decitabine (DU-145 cells [6]): synergy; Clonogenic survival, drug alone (DU-145 cells [7]): some reduction in clonogenic survival; Clonogenic survival, in combination with decitabine (DU-145 cells [7]): significantly enhanced reduction in clonogenic survival
CN(N=O)c1ccc(O)c(O)c1 [methyl-3,4-dephostatin] |  | significantly inhibited | failed to show any appreciable inhibition | 
NC(Cc1cc(O)c(O)cc1O)C(=O)O (racemic) [6-OH-DL-DOPA] |  | significantly inhibited | failed to show any appreciable inhibition | 
COc1cccc2c1C(=O)c1c(O)c3c(c(O)c1C2=O)C[C@@](O)(C(=O)CO)C[C@@H]3O[C@H]1C[C@H](N)[C@H](O)[C@H](C)O1 [doxorubicin] |  |  |  | Growth/proliferation, combination with decitabine [3]: showed enhanced; Growth/proliferation, combination with decitabine [4]: showed enhanced; Growth/proliferation, combination with decitabine [5]: did not show enhanced growth inhibition; Growth curve analysis, in combination with decitabine (DU-145 cells [6]): synergy; IC50 [1]: 131 nM; Clonogenic survival, drug alone (DU-145 cells [7]): some reduction in clonogenic survival; Clonogenic survival, in combination with decitabine (DU-145 cells [7]): significantly enhanced reduction in clonogenic survival
O=C(O)C1=CC(=C(c2ccc(O)c(C(=O)O)c2)c2ccc(O)c(C(=O)O)c2)C=CC1=O [aurintricarboxylic acid] | 21 | significantly inhibited | inhibited binding with a sigmoidal dose response | 
O=C(Nc1cc(C(=O)Nc2ccc(S(=O)(=O)O)cc2S(=O)(=O)O)cc(C(=O)Nc2ccc(S(=O)(=O)O)cc2S(=O)(=O)O)c1)Nc1cc(C(=O)Nc2ccc(S(=O)(=O)O)cc2S(=O)(=O)O)cc(C(=O)Nc2ccc(S(=O)(=O)O)cc2S(=O)(=O)O)c1 [NF449] | 393 | significantly inhibited | inhibited binding with a sigmoidal dose response | 
O=C(Nc1cccc(C(=O)Nc2ccc(S(=O)(=O)O)c3cc(S(=O)(=O)O)cc(S(=O)(=O)O)c23)c1)Nc1cccc(C(=O)Nc2ccc(S(=O)(=O)O)c3cc(S(=O)(=O)O)cc(S(=O)(=O)O)c23)c1 [NF023] | 840 | significantly inhibited | inhibited binding with a sigmoidal dose response | 
CC(=O)[C@]1(O)Cc2c(O)c3c(c(O)c2[C@@H](O[C@H]2C[C@H](N)[C@H](O)[C@H](C)O2)C1)C(=O)c1ccccc1C3=O [idarubicin] | 593 | significantly inhibited | inhibited binding with a sigmoidal dose response | 
S=C=Nc1ccc2oc(C3=NCCN3)cc2c1 [BU99006] |  | significantly inhibited | failed to show any appreciable inhibition | 
NCCNc1ccc(NCCN)c2c1C(=O)c1ccncc1C2=O [Pixantrone, pixantrone] | 557 |  |  | 
Nc1ncn([C@H]2C[C@H](O)[C@@H](CO)O2)c(=O)n1 [decitabine] |  |  |  | Clonogenic survival, drug alone (DU-145 cells [7]): some reduction in clonogenic survival
N=C1Sc2ccccc2C2=NCCCN12 [PD404,182] |  | significantly inhibited | failed to show any appreciable inhibition | 

Source: PMC6508961, “A high-throughput screen of pharmacologically active compounds for inhibitors of UHRF1 reveals epigenetic activity of anthracycline derivative chemotherapeutic drugs” (Oncotarget, 2019)
